In ChEMBL document CHEMBL5150003, “Why All the Fury over Furin?” (J Med Chem, 2022):
Numbered stars: 1 amine (or outer) side, 2 acyl side, 3 side chain; on linkers, the order of the positions; unused ones are H or OH. Bridge positions count the residues as written; N and C are the ends. Square brackets hold non-standard residues; d marks the D form. Peptide text beside a SMILES is read from it. * marks the point of attachment. NH(4-amidinobenzyl) = N=C(N)c1ccc(CN*)cc1; 2Nal = N[C@@H](Cc1ccc2ccccc2c1)C(=O)O; Glutaryl = O=C(CCCC(=O)[*:2])[*:1]; Suc = O=C(CCC(=O)[*:2])[*:1]; X3 = NC(N)=NC/C=C/CN*

What was measured:
[1] = Cytotoxicity against human HT-1080 cells assessed as cell viability at 100 uM and measured after 2 hrs by WST-1 method; type: toxicity, cell-based; conditions: read-out: Activity
[2] = Protective activity against Pseudomonas aeruginosa exotoxin A-induced cytotoxicity in chinese hamster CHO-DG44 cells measured by WST-1 method; type: functional, Cricetulus griseus; conditions: dose 100 µM
[3] = Inhibition of migration of human HT-1080 cells at 100 uM measured by calcein AM/ethidium homodimer (EthD-1) staining method; type: functional
[4] = Cytotoxicity against chinese hamster CHO-DG44 cells assessed as cell viability at 100 uM and measured after 2 hrs by WST-1 method; type: toxicity, cell-based, Cricetulus griseus; conditions: read-out: Activity
[5] = test system: RAW264.7; test: Protective activity against Anthrax toxin-induced cytotoxicity in mouse RAW264.7 cells measured by WST-1 method; type: functional; conditions: dose 100 µM
[6] = biological target: T1, Furin (Homo sapiens, UniProt P09958); test: Inhibition of furin (unknown origin)
T1 sequence (P09958 whole entry): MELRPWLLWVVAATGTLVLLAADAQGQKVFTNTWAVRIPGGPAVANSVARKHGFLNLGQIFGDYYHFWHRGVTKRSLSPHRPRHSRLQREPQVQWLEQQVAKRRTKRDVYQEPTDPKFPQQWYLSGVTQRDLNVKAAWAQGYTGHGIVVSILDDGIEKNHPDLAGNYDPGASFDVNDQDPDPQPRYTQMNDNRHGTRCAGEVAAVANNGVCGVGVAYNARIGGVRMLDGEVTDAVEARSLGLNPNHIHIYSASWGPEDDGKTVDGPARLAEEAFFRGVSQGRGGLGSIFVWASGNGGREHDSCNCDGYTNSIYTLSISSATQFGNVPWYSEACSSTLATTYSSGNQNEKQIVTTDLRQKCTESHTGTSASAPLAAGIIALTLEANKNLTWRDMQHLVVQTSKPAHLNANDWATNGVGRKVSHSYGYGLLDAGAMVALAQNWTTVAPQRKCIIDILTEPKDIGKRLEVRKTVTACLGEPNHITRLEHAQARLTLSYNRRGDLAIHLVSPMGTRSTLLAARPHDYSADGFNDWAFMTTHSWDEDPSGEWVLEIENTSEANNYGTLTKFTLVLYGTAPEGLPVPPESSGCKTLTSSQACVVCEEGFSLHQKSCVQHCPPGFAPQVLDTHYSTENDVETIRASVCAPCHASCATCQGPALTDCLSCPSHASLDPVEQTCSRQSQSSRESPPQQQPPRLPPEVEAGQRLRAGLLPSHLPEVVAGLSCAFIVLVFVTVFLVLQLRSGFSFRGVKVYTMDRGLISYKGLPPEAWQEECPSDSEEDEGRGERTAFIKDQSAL

[7] = biological target: T1, Furin; test: Inhibition of furin (unknown origin) using Pyr-RTKR-MCA as substrate incubated for 30 mins and measured by FRET assay
[8] = biological target: T1, Furin; test: Inhibition of furin in human U2OS cells measured after 24 hrs by fluorescence assay; type: cell-based
[9] = test system: Mus musculus; test: Antifibrotic activity against bleomycin-induced mouse lung fibrosis model assessed as inhibition of hydroxyproline content in lung at 10 mg/kg, po administered once daily; type: functional
[10] = test system: Mus musculus; test: Antifibrotic activity against bleomycin-induced mouse lung fibrosis model assessed as inhibition of TGF-beta secretion in lung at 10 mg/kg, po administered once daily; type: functional
[11] = Stability in mouse plasma assessed as half-life; type: ADME, cell-free

Q: What does the source list for N=C(N)Nc1ccc(O[C@H]2C[C@@H](Oc3ccc(NC(=N)N)c4ccccc34)[C@H](NC(=N)N)C[C@@H]2NC(=N)N)c2ccccc12?
A: viability at 2 h, 100 µM [1]: > 90%; Activity [2]: 30%; inhibition at 100 µM [3]: 40%; viability at 2 h, 100 µM [4]: > 90%; Activity [5]: 80%

Q: For N=C(N)Nc1ccc(O[C@H]2C[C@@H](Oc3ccc(NC(=N)N)c4ccccc34)[C@H](NC(=N)N)C[C@@H]2NC(=N)N)c(NC(=N)N)c1, which viability at 2 h, 100 µM [1] is on record?
A: > 80%

Q: And the inhibition at 100 µM [3]?
A: > 60%

Q: And the viability at 2 h, 100 µM [4]?
A: > 80%

Q: What about the Activity [5] of the same molecule?
A: 50%

Q: For CC(C)(C)[C@H](NC(=O)[C@H](CCCNC(=N)N)NC(=O)Cc1ccc(CNC(=N)N)cc1)C(=O)N[C@@H](CCCNC(=N)N)C(=O)NCc1ccccc1, which IC50 [6] is on record?
A: 0.56 nM

Q: Which Ki [7] does the source give for N=C(N)N[C@H]1C[C@@H](NC(=N)N)[C@H](Oc2ccc(C(=N)N)cn2)C[C@@H]1Oc1ccc(C(=N)N)cn1 here?
A: 20 nM

Q: With N=C(N)NCCC[C@H](NC(=O)[C@@H]1CCCCNC(=O)CCC(=O)N[C@@H](Cc2ccccc2)C(=O)N[C@@H](Cc2ccc3ccccc3c2)C(=O)N[C@@H](CCCNC(=N)N)C(=O)N[C@@H](CCCNC(=N)N)C(=O)N[C@@H](CCCNC(=N)N)C(=O)N[C@@H](CCCNC(=N)N)C(=O)N1)C(=O)NCc1ccc(C(=N)N)cc1 (F[2Nal]RRRRKR-{NH(4-amidinobenzyl)}; linker N-7 via Suc) as the molecule, how does the Ki [6] read?
A: 0.0538 nM

Q: Which viability at 2 h, 100 µM [1] does the source give for N=C(N)Nc1ccc(O[C@H]2C[C@@H](Oc3ccc(NC(=N)N)cc3NC(=N)N)[C@H](NC(=N)N)C[C@@H]2NC(=N)N)c(NC(=N)N)c1 here?
A: > 90%

Q: What about the Activity [2] of the same molecule?
A: >70%

Q: What about the inhibition at 100 µM [3] of the same molecule?
A: 60%

Q: What about the viability at 2 h, 100 µM [4] of the same molecule?
A: > 90%

Q: And the Activity [5]?
A: >80%

Q: For N=C(N)N[C@H]1C[C@@H](NC(=N)N)[C@H](Oc2ccc(C(=N)N)cc2)C[C@@H]1Oc1ccc(C(=N)N)cc1, which Ki [7] is on record?
A: 2 nM

Q: For N=C(N)NCCC[C@@H]1NC(=O)CCCC(=O)NCCCC[C@@H](C(=O)N[C@@H](CCCNC(=N)N)C(=O)NCc2ccc(C(=N)N)cc2)NC(=O)[C@H](CCCNC(=N)N)NC(=O)[C@H](CCCNC(=N)N)NC1=O (RRRKR-{NH(4-amidinobenzyl)}; linker N-4 via Glutaryl), which Ki [6] is on record?
A: 0.68 nM

Q: Which Ki [6] does the source give for CC(C)(C)[C@H](NC(=O)[C@H](CCCNC(=N)N)NC(=O)Cc1ccc(CN)cc1)C(=O)N[C@@H](CCCNC(=N)N)C(=O)NCc1ccc(C(=N)N)cc1 here?
A: 0.0224 nM

Q: Which Ki [7] does the source give for N=C(N)N[C@H]1C[C@@H](NC(=N)N)[C@H](Oc2ccc(C(=N)N)c3ccccc23)C[C@@H]1Oc1ccc(C(=N)N)c2ccccc12 here?
A: 50 nM

Q: For N=C(N)c1ccc(Oc2cccc(Oc3ccc(C(=N)N)cc3)c2)cc1, which Ki [7] is on record?
A: 100 nM

Q: Which Ki [7] does the source give for N=C(N)N[C@H]1C[C@@H](NC(=N)N)[C@H](Oc2ccc(C(=N)N)cc2Cl)C[C@@H]1Oc1ccc(C(=N)N)cc1Cl here?
A: 5 nM

Q: Which Ki [7] does the source give for N=C(N)N[C@H]1C[C@@H](NC(=N)N)[C@H](Oc2ccc(C(=N)N)cc2C(=N)N)C[C@@H]1Oc1ccc(C(=N)N)cc1C(=N)N here?
A: 100 nM

Q: With O=C(O)CC1CCN(Cc2cc(Oc3cnc(N4CCNCC4)nc3)nc(-c3cc(Cl)cc(Cl)c3)c2)CC1 as the molecule, how does the pXC50 [8] read?
A: 7.6

Q: What about the inhibition in vivo at 10 mg/kg [9] of the same molecule?
A: 6%

Q: What about the inhibition in vivo at 10 mg/kg [10] of the same molecule?
A: -11%

Q: With N=C(N)c1ccc(/N=N/Nc2ccc(C(=N)N)cc2)cc1 [DIMINAZENE] as the molecule, how does the Ki [7] read?
A: 5420 nM

Q: With CC(C)(C)[C@H](NC(=O)[C@H](CCCNC(=N)N)NC(=O)Cc1ccc(CNC(=N)N)cc1)C(=O)N[C@@H](CCCN)C(=O)NCc1ccc(C(=N)N)cc1 as the molecule, how does the Ki [6] read?
A: 0.0088 nM

Q: With N=C(N)Nc1ccc(O[C@H]2C[C@@H](Oc3ccc(NC(=N)N)c4ccccc34)[C@H](NC(=N)N)C[C@@H]2NC(=N)N)cc1 as the molecule, how does the viability at 2 h, 100 µM [1] read?
A: > 50%

Q: What about the Activity [2] of the same molecule?
A: 60%

Q: What about the viability at 2 h, 100 µM [4] of the same molecule?
A: > 50%

Q: What about the Activity [5] of the same molecule?
A: 90%

Q: What does the source list for CC(=O)N[C@@H](CCCN=C(N)N)C(=O)N[C@@H](C)C(=O)N[C@@H](CCCN=C(N)N)C(=O)N[C@@H](CCCN=C(N)N)C(=O)N[C@@H](CCCN=C(N)N)C(=O)N[C@@H](CCCCN)C(=O)N[C@@H](CCCCN)C(=O)NC/C=C/CN=C(N)N (Ac-RARRRKK-X3)?
A: Ki [6]: 7 nM; half-life [11]: 3.3 h

Q: For N=C(N)NCCC[C@@H]1NC(=O)CCCC(=O)NCCCC[C@@H](C(=O)N[C@@H](CCCNC(=N)N)C(=O)NCc2ccc(C(=N)N)cc2)NC(=O)[C@H](CCCNC(=N)N)NC1=O (RRKR-{NH(4-amidinobenzyl)}; linker N-3 via Glutaryl), which Ki [6] is on record?
A: 0.504 nM

Q: For O=C(O)CC1CCN(Cc2cc(Oc3cnc(N4CCN(CCO)CC4)nc3)nc(-c3cc(Cl)cc(Cl)c3)c2)CC1, which pXC50 [8] is on record?
A: 7.6

Q: And the inhibition in vivo at 10 mg/kg [9]?
A: 11%

Q: And the inhibition in vivo at 10 mg/kg [10]?
A: 31%

Q: Which Ki [7] does the source give for Cc1cc(O[C@H]2C[C@@H](Oc3ccc(C(=N)N)c(C)c3)[C@H](NC(=N)N)C[C@@H]2NC(=N)N)ccc1C(=N)N here?
A: 10 nM

Q: With N=C(N)NCCC[C@@H]1NC(=O)CCCC(=O)NCCCC[C@@H](C(=O)N[C@@H](CCCCN)C(=O)NCc2ccc(C(=N)N)cc2)NC(=O)[C@H](CCCNC(=N)N)NC1=O (RRKK-{NH(4-amidinobenzyl)}; linker N-3 via Glutaryl) as the molecule, how does the Ki [6] read?
A: 1.05 nM

Q: Which Ki [7] does the source give for N=C(N)c1ccc(OC2CCCC(Oc3ccc(C(=N)N)cc3)C2)cc1 (stereo unspecified) here?
A: 1000 nM

Q: Which pXC50 [8] does the source give for CS(=O)(=O)CCCN1CCN(c2ncc(Oc3cc(CN4CCC(CC(=O)O)CC4)cc(-c4cc(Cl)cc(Cl)c4)n3)cn2)CC1 here?
A: 7.6

Q: And the inhibition in vivo at 10 mg/kg [9]?
A: -1%

Q: What about the inhibition in vivo at 10 mg/kg [10] of the same molecule?
A: 40%

Q: For CN1CCN(c2ncc(Oc3cc(CN4CCC(CC(=O)O)CC4)cc(-c4cc(Cl)cc(Cl)c4)n3)cn2)CC1, which pXC50 [8] is on record?
A: 7.8

Q: And the inhibition in vivo at 10 mg/kg [9]?
A: 46%

Q: And the inhibition in vivo at 10 mg/kg [10]?
A: 66%

Q: With CC(C)[C@H](NC(=O)[C@H](CCCNC(=N)N)NC(=O)[C@@H](N)CCCNC(=N)N)C(=O)N[C@@H](CCCNC(=N)N)C(=O)NCc1ccc(C(=N)N)cc1 (H-RRVR-{NH(4-amidinobenzyl)}) as the molecule, how does the Ki [6] read?
A: 0.11 nM

Q: What does the source list for CC(=O)NCC1CCN(Cc2cc(Oc3cnc(N4CCN(CCC(C)C(=O)O)CC4)nc3)nc(-c3cc(Cl)cc(Cl)c3)c2)CC1 (stereo unspecified)?
A: pXC50 [8]: 8.3; inhibition in vivo at 10 mg/kg [9]: 62%; inhibition in vivo at 10 mg/kg [10]: 75%

Q: What does the source list for C[C@@H](O)CN1CCN(c2ncc(Oc3cc(CN4CCC(CC(=O)O)CC4)cc(-c4cc(Cl)cc(Cl)c4)n3)cn2)CC1?
A: pXC50 [8]: 7.7; inhibition in vivo at 10 mg/kg [9]: 16%; inhibition in vivo at 10 mg/kg [10]: 23%

Q: With N=C(N)Nc1ccc(O[C@H]2C[C@@H](Oc3ccc(NC(=N)N)cn3)[C@H](NC(=N)N)C[C@@H]2NC(=N)N)nc1 as the molecule, how does the viability at 2 h, 100 µM [1] read?
A: > 90%

Q: And the Activity [2]?
A: 100%

Q: And the viability at 2 h, 100 µM [4]?
A: > 90%

Q: And the Activity [5]?
A: 80%

Q: Which Ki [6] does the source give for CC(C)(C)[C@@H]1NC(=O)[C@H](CCCNC(N)N)NC(=O)[C@H](CCCNC(=N)N)NC(=O)[C@@H](N)CCCCNC(=O)CCN2CCN(CCC(=O)NCCCC[C@@H](C(=O)NCc3ccc(C(=N)N)cc3)NC1=O)CC2 here?
A: 0.491 nM

Q: For N=C(N)NCCC[C@@H]1NC(=O)[C@H](Cc2ccc3ccccc3c2)NC(=O)[C@H](Cc2ccccc2)NC(=O)CCC(=O)NCCCC[C@@H](C(=O)N[C@@H](CCCCN)C(=O)NCc2ccc(C(=N)N)cc2)NC(=O)[C@H](CCCNC(=N)N)NC(=O)[C@H](CCCNC(=N)N)NC1=O (F[2Nal]RRRKK-{NH(4-amidinobenzyl)}; linker N-6 via Suc), which Ki [6] is on record?
A: 0.618 nM

Q: Which viability at 2 h, 100 µM [1] does the source give for N=C(N)Nc1ccc(O[C@H]2C[C@@H](Oc3ccc(NC(=N)N)cc3)[C@H](NC(=N)N)C[C@@H]2NC(=N)N)cc1 here?
A: > 90%

Q: What about the Activity [2] of the same molecule?
A: >20%

Q: And the viability at 2 h, 100 µM [4]?
A: > 90%

Q: And the Activity [5]?
A: >90%

Q: With CC(C)(C)[C@@H]1NC(=O)[C@H](CCCNC(=N)N)NC(=O)[C@H](CCCNC(=N)N)NC(=O)[C@@H](N)CCCCNC(=O)Cc2ccc(cc2)CNC(=O)CCCC(=O)NCCCC[C@@H](C(=O)NCc2ccc(C(=N)N)cc2)NC1=O as the molecule, how does the Ki [6] read?
A: 1.17 nM
